In assay [1] the test system is HCT-116. As to the kind of experiment: Antiproliferative activity against human HCT-116 cells incubated for 4 days by CCK8 assay. It is filed as functional, cell-based. Particulars: HCT-116, 96 h.
Assay [2] deals with HCT-116. As to the kind of experiment: Induction of RBM39 degradation in human HCT-116 cells assessed as fold change at 0.1 uM incubated for 24 hrs by Western blot analysis relative to control. The class given is cell-based.
The subject of assay [3] is HCT-116. As to the kind of experiment: Induction of RBM39 degradation in human HCT-116 cells assessed as fold change at 1 uM incubated for 24 hrs by Western blot analysis relative to control. The class given is cell-based.
For assay [4], the system named is HCT-116. As to the kind of experiment: Induction of RBM39 degradation in human HCT-116 cells at 0.1 to 1 uM incubated for 24 hrs by Western blot analysis. The class given is cell-based. To be noted: dose 0.1-1 µM.
Assay [5] is described as follows: Inhibition of DCAF15 (2 to 600 residues)/full-length DDB1 (1 to 1140 residues)(unknown origin) incubated for 1 hr by fluorescence polarization assay. More on the design: species or system Homo sapiens.
A short description of assay [6]: Inhibition of N-terminal His-tagged RBM39 (146 to 326 residues)/DCAF15 (2 to 600 residues)/full-length DDB1 (1 to 1140 residues)(unknown origin) incubated for 1 hr by fluorescence polarization assay. On the set-up: species or system Homo sapiens.
The nature of assay [7]: Competitive inhibition of N-terminal His-tagged RBM39 (146 to 326 residues)/DCAF15 (2 to 600 residues)/full-length DDB1 (1 to 1140 residues)(unknown origin) incubated for 1 hr in presence of (R)-N-(3-(N-(3-Cyano-4-methyl-1H-indol-7-yl)sulfamoyl)phenyl)-2-(2-(((6-(3-(3',6'-dihydroxy-3-oxo-3H-spiro[isobenzofuran-1,9'-xanthen]-5-yl)thioureido)hexyl)amino)methyl)pyrrolidin-1-yl)-2-oxoacetamide by fluorescence polarization assay. On the set-up: species or system Homo sapiens.

Active and inactive are the calls of the source. The calls are words filed in the database; no cut-off is given here.

Turning to `Cc1ccc(NS(=O)(=O)c2cccc(NC(=O)C(=O)N3CCC[C@@H]3CN)c2)c2[nH]cc(C#N)c12`, half-maximal inhibition in the assay with HCT-116 [1] (IC50) was put at 52.3 nM. Further, the fold change (FC) was 0.52 with HCT-116 [2] and 0.22 in the assay on HCT-116 [3]. For the same molecule, the result with HCT-116 [4] was Active.
`Cc1ccc(NS(=O)(=O)c2cccc(NC(=O)C(=O)N3CCC[C@H]3CN)c2)c2[nH]cc(C#N)c12` registered an IC50 with HCT-116 [1] of 90.5 nM. In addition, the figures for the fold change (FC) in the assay with HCT-116 [2] and in the assay on HCT-116 [3] were 0.55 and 0.18, respectively. Further, the result with HCT-116 [4] was Active.
Molecule `Cc1ccc(NS(=O)(=O)c2cccc(NC(=O)C(=O)NCCCCCCN(C)C)c2)c2[nH]cc(C#N)c12` registered an IC50 with HCT-116 [1] of 776 nM.
`Cc1ccc(NS(=O)(=O)c2cccc(NC(=O)C(=O)NCCN)c2)c2[nH]cc(C#N)c12` showed an IC50 with HCT-116 [1] of 2900 nM.
The molecule `Cc1ccc(NS(=O)(=O)c2cccc(NC(=O)C(=O)N3CCCC[C@H]3CO)c2)c2[nH]cc(C#N)c12` gave an IC50 with HCT-116 [1] of 70.3 nM. Further, the fold change (FC) in the assay on HCT-116 [2] was 0.59; in the assay on HCT-116 [3], 0.21. Moreover, in the assay on HCT-116 [4], the result was Active.
Take `Cc1ccc(NS(=O)(=O)c2cccc(NC(=O)C(=O)N3CCC[C@@H]3CNCCCCCCNC(=S)Nc3ccc4c(c3)C(=O)OC43c4ccc(O)cc4Oc4cc(O)ccc43)c2)c2[nH]cc(C#N)c12`: the IC50 in assay [5] was above 2000 nM; in assay [6] it was 208 nM.
`Cc1ccc(NS(=O)(=O)c2cccc(NC(=O)C(=O)N3CCCC[C@@H]3CO)c2)c2[nH]cc(C#N)c12`: the IC50 in the assay with HCT-116 [1] came out at 58 nM. Further, the figures for the fold change (FC) with HCT-116 [2] and with HCT-116 [3] were 0.66 and 0.17, respectively. Moreover, the result in the assay on HCT-116 [4] was Active.
As for `Cc1ccc(NS(=O)(=O)c2cccc(NC(=O)C(=O)NCCCN)c2)c2[nH]cc(C#N)c12`, in the assay on HCT-116 [1], 1500 nM corresponded to half-maximal inhibition (IC50).
In the assay on HCT-116 [1], `Cc1ccc(NS(=O)(=O)c2cccc(NC(=O)C(=O)NCCCCN)c2)c2[nH]cc(C#N)c12` yielded an IC50 of 1000 nM.
`Cc1ccc(NS(=O)(=O)c2cccc(NC(=O)C(=O)N3CCC[C@H]3CO)c2)c2[nH]cc(C#N)c12` showed an IC50 in the assay on HCT-116 [1] of 50.3 nM. The fold change (FC) with HCT-116 [2] came out at 0.49; in the assay with HCT-116 [3] it was 0.32. Besides, in the assay with HCT-116 [4], the outcome was Active.
Molecule `COC[C@H]1CCCN1C(=O)C(=O)Nc1cccc(S(=O)(=O)Nc2ccc(C)c3c(C#N)c[nH]c23)c1` gave an IC50 with HCT-116 [1] of 729 nM.
For `Cc1ccc(NS(=O)(=O)c2cccc(NC(=O)C(=O)NCCCCCN)c2)c2[nH]cc(C#N)c12`, the IC50 was 67.8 nM with HCT-116 [1] and 301 nM in assay [7]. For the same molecule, the fold change (FC) came out at 0.8 in the assay on HCT-116 [2] and 0.3 in the assay on HCT-116 [3]. Further, in the assay on HCT-116 [4], the outcome was Active.
On to `Cc1ccc(NS(=O)(=O)c2cccc(NC(=O)C(=O)NCCCCCCCN)c2)c2[nH]cc(C#N)c12`, for which the IC50 in the assay on HCT-116 [1] is 927 nM.
`Cc1ccc(NS(=O)(=O)c2cccc(NC(=O)C(=O)NCCCCCN(C)C)c2)c2[nH]cc(C#N)c12` had an IC50 in the assay on HCT-116 [1] of 398 nM.
Take `Cc1ccc(NS(=O)(=O)c2cccc(NC(=O)C(=O)NCCCCCCN)c2)c2[nH]cc(C#N)c12`: the IC50 in the assay on HCT-116 [1] was found to be 150 nM.
`COC[C@@H]1CCCN1C(=O)C(=O)Nc1cccc(S(=O)(=O)Nc2ccc(C)c3c(C#N)c[nH]c23)c1` displayed an IC50 in the assay on HCT-116 [1] of 696 nM.

These data come from ChEMBL document CHEMBL6109117, “Synthesis of an RBM39 Degrader That Downregulates CEP192 and Induces Disorganized Spindle Structures” (J Med Chem, 2025).
